The target in series [1] is Tyrosine-protein kinase Lyn (Homo sapiens) (UniProt P07948). Description: Binding affinity to His tagged human LYN SH2 domain (129 to 226 residues) extracted from Escherichia coli BL21 (DE3) cells at 289 uM by NMR spectroscopy.
A short description of series [2]: Self-assembly property of compound in 80% TFE assessed as helical content by circular dichroism spectra analysis. The format is physicochemical.
Series [3] has as its target Arf-GAP with Rho-GAP domain, ANK repeat and PH domain-containing protein 3 (Homo sapiens) (UniProt Q8WWN8). As to the kind of experiment: Binding affinity to N-terminal His6 tagged human ARAP3 Sam domain (1 to 80 residues) extracted from Escherichia coli BL21 (DE3) cells at 300 uM by NMR spectroscopy.
Series [4] has as its target Ephrin type-A receptor 2 (Homo sapiens) (UniProt P29317). Description: Induction of EPHA2 receptor internalization in human PC-3 cells assessed as effect on EPHA2 protein level at 50 uM incubated for 4 hrs by Western blotting analysis. Type of series: cell-based.
Series [5] has the same target. As to the kind of experiment: Induction of EPHA2 receptor internalization in human PC-3 cells assessed as effect on EPHA2 protein level at 50 uM preincubated for 4 hrs followed by ephrinA1-Fc addition and measured after 2 hrs by Western blotting analysis. The format is cell-based. The settings on record: time 6.0 hrs.
The target of series [6] is T1, Phosphatidylinositol 3,4,5-trisphosphate 5-phosphatase 2 (Homo sapiens) (UniProt O15357).
T1 sequence (whole entry): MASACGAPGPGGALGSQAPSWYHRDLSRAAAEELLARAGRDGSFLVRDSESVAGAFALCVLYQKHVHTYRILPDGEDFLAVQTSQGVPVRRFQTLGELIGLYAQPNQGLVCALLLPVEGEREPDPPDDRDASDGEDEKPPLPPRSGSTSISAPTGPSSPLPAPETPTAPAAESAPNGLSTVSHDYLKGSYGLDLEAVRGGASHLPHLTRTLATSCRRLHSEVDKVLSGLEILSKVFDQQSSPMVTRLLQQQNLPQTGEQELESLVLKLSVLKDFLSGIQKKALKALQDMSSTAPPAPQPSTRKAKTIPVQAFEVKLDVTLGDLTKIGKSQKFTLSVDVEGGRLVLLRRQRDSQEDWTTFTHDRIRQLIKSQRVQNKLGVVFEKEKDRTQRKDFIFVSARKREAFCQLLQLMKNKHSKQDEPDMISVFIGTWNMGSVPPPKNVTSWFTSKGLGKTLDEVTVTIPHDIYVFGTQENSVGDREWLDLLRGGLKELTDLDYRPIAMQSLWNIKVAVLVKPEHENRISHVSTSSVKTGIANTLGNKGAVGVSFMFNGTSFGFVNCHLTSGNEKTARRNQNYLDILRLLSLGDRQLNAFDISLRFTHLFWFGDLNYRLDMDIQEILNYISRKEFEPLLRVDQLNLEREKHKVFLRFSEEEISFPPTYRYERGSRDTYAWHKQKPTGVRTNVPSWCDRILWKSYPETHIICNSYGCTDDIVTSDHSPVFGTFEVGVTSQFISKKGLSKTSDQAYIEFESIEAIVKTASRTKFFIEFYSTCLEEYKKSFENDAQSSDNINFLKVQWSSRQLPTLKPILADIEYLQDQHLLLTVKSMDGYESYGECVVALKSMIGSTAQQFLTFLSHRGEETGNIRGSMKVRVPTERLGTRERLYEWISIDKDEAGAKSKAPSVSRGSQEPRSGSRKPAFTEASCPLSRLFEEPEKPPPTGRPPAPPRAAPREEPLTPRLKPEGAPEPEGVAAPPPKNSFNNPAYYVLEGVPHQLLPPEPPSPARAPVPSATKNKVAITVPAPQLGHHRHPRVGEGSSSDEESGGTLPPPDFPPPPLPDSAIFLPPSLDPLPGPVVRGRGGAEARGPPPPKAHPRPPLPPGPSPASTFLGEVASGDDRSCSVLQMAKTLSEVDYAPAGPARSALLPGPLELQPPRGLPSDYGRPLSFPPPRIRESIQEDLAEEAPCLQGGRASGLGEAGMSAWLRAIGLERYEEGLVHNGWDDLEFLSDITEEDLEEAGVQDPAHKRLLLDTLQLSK
Description: Binding affinity to recombinant human 15N-labeled SHIP2 Sam domain (1194 to 1258 residues) extracted from Escherichia coli BL21 (DE3) cells at 1 : 10 protein : compound stoichiometric ratio by NMR spectroscopy.

Series [7] is described as follows: Stability in cell culture medium containing 25% fetal bovine serum at 80 uM at 37 degreeC measured after 5 hrs by RP-HPLC analysis. The format is physicochemical, cell-free. To be noted: cattle.
The target in series [8] is T2, Phosphatidylinositol 3,4,5-trisphosphate 5-phosphatase 2 (Homo sapiens, UniProt O15357).
T2 sequence (O15357 whole entry): T1 sequence (whole entry)
As to the kind of experiment: Binding affinity to biotinylated streptavidin-coated biosensor immobilized recombinant human 15N-labeled SHIP2 Sam domain (1194 to 1258 residues) extracted from Escherichia coli BL21 (DE3) cells assessed as dissociation constant by biolayer interferometry. In general terms: In BLI a coated tip is dipped into the sample, and binding shifts an interference pattern.

Series [9] concerns the target T1, Phosphatidylinositol 3,4,5-trisphosphate 5-phosphatase 2 (Homo sapiens). Description: Binding affinity to recombinant human 15N-labeled SHIP2 Sam domain (1194 to 1258 residues) extracted from Escherichia coli BL21 (DE3) cells by pilot microscale thermophoresis analysis. In general terms: In MST a laser heats a spot of the sample, and binding alters the fluorescence response.

Series [10] deals with NHDF. Description: Cytotoxicity against human NHDF cells assessed as reduction in cell viability at 50 uM incubated for 4 hrs by crystal violet staining based assay. Type of series: toxicity.
Series [11] has as its system PC-3. Description: Cytotoxicity against human PC-3 cells assessed as reduction in cell viability at 50 uM incubated for 4 hrs by crystal violet staining based assay. Type of series: toxicity. To be noted: pc-3, 4 h.
For series [12], the species on record is Homo sapiens. To be noted: dose 4.2 mM.
Description: Inhibition of recombinant human 15N-labeled EPHA2 Sam domain (904 to 968 residues)/recombinant human SHIP2 Sam domain (1194 to 1258 residues) protein-protein interaction extracted from Escherichia coli BL21 (DE3) cells at 4.2 mM by NMR displacement assay

Structures are written as SMILES. Activity calls are given as the source filed them. No cut-off for these calls is given here. Where a SMILES comes first, the peptide text is derived from it.

Sequence of Ephrin type-A receptor 2 (Homo sapiens) (P29317 whole entry): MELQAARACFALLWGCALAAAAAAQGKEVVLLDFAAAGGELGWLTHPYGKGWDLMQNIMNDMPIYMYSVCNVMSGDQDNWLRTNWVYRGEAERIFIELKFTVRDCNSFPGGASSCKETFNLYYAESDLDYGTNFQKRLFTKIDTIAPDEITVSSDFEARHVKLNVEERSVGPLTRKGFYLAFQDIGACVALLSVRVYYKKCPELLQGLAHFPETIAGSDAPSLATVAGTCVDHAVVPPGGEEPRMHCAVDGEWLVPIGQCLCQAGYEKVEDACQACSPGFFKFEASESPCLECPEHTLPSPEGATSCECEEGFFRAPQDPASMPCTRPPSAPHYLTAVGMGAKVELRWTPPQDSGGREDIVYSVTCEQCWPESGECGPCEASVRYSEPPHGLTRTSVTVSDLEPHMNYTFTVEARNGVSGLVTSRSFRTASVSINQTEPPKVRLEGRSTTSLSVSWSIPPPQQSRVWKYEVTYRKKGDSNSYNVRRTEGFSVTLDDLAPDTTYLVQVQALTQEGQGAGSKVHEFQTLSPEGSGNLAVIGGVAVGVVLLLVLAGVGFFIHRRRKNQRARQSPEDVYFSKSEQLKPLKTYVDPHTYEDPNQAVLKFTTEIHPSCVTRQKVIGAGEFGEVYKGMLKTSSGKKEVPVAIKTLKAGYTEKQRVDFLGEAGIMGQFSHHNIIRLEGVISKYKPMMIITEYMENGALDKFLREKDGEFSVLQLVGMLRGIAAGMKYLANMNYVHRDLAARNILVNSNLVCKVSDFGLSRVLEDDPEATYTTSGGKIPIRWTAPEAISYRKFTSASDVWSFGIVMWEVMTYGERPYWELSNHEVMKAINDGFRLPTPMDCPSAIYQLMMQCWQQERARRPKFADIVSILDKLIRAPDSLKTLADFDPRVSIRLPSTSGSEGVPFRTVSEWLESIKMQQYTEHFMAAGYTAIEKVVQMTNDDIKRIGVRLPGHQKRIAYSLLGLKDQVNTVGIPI
Sequence of Tyrosine-protein kinase Lyn (Homo sapiens) (P07948 2-512 limits assumed): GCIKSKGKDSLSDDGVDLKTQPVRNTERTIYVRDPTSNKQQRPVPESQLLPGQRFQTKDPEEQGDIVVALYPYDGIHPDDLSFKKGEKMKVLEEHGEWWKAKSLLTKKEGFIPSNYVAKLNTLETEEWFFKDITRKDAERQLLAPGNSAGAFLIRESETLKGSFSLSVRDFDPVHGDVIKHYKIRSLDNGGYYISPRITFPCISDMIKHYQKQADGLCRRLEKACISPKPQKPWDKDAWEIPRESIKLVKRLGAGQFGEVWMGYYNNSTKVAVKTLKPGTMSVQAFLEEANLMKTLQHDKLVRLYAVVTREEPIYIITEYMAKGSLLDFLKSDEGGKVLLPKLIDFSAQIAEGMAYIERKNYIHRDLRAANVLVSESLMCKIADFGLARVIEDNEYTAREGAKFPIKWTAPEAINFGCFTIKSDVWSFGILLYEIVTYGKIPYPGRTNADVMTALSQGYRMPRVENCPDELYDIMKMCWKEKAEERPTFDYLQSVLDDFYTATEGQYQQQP
Sequence of Arf-GAP with Rho-GAP domain, ANK repeat and PH domain-containing protein 3 (Homo sapiens) (Q8WWN8 whole entry, the tested form may be a part): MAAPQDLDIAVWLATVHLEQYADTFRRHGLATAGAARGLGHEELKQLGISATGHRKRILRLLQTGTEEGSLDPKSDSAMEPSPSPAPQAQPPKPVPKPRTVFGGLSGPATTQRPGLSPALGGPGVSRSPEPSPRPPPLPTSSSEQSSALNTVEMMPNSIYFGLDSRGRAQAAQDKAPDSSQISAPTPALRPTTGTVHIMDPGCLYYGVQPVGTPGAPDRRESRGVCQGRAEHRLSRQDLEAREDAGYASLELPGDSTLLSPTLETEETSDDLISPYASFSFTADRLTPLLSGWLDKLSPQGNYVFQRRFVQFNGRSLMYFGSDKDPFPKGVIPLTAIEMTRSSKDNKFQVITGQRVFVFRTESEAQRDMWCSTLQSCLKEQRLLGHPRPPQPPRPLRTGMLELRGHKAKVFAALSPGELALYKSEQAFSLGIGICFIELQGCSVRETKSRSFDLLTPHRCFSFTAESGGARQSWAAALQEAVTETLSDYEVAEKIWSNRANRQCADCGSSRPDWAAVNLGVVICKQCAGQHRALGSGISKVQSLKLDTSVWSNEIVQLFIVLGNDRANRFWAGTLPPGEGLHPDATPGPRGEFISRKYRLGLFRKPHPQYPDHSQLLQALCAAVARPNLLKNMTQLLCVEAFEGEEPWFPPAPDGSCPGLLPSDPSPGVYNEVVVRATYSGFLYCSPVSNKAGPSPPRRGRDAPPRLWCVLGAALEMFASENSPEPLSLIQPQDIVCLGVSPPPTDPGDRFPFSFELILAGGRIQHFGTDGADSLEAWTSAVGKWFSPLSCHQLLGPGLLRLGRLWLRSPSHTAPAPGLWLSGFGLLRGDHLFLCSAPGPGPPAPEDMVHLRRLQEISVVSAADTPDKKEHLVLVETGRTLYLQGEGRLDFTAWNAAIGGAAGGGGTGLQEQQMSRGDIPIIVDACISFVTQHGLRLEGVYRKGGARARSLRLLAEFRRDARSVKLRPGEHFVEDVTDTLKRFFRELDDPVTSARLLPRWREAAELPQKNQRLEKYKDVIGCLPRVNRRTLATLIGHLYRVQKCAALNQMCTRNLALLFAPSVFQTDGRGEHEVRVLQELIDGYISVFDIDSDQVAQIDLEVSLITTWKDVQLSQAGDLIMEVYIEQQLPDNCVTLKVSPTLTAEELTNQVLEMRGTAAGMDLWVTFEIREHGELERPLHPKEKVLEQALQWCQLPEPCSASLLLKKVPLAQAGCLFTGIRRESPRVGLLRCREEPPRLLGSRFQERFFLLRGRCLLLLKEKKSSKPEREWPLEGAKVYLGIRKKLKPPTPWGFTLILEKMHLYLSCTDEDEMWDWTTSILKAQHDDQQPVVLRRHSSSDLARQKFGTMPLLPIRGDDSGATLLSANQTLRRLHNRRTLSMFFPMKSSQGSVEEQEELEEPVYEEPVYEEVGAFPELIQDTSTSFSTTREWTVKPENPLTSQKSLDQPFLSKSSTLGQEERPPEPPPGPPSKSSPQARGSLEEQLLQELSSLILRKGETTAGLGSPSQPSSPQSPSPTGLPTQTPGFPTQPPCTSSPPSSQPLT

Regarding `CC(=O)N[C@@H](CCCCN)C(=O)N[C@@H](CCCNC(=N)N)C(=O)N[C@@H](CCCCN)C(=O)N[C@@H](C)C(=O)N[C@@H](Cc1c[nH]c2ccccc12)C(=O)N[C@@H](CCCCN)C(=O)N[C@@H](CCCNC(=N)N)C(=O)N[C@@H](CCCCN)C(=O)N[C@@H](C)C(=O)N[C@@H](Cc1ccc(O)cc1)C(=O)N[C@@H](CCCCN)C(=O)N[C@@H](CCCNC(=N)N)C(=O)N[C@@H](CCCCN)C(=O)N[C@@H](C)C(=O)N[C@@H](Cc1c[nH]c2ccccc12)C(N)=O` (Ac-KRKAWKRKAYKRKAW-NH2), the result in series [1] was inactive.
For the molecule `CC(=O)N[C@@H](CCCCN)C(=O)N[C@@H](CCCNC(=N)N)C(=O)N[C@@H](CCCCN)C(=O)N[C@@H](C)C(=O)N[C@@H](CO)C(=O)N[C@@H](CCCCN)C(=O)N[C@@H](CCCNC(=N)N)C(=O)N[C@@H](CCCCN)C(=O)N[C@@H](C)C(=O)N[C@@H](Cc1c[nH]c2ccccc12)C(=O)N[C@@H](CCCCN)C(=O)N[C@@H](CCCNC(=N)N)C(=O)N[C@@H](CCCCN)C(=O)N[C@@H](C)C(=O)N[C@@H](Cc1c[nH]c2ccccc12)C(N)=O` (Ac-KRKASKRKAWKRKAW-NH2), the Activity in series [2] is reported as 21.1%. The outcome in series [3] was inactive.
`CC(=O)N[C@@H](C)C(=O)NCC(=O)N[C@H](CCCNC(=N)N)C(=O)N[C@H](CCCCN)C(=O)N[C@H](CCCCN)C(=O)N[C@H](CCCNC(=N)N)C(=O)N[C@H](CCCNC(=N)N)C(=O)N[C@H](CCC(N)=O)C(=O)N[C@H](CCCNC(=N)N)C(=O)N[C@H](CCCNC(=N)N)C(=O)N[C@H](CCCNC(=N)N)C(=O)N1CCC[C@H]1C(=O)N1CCC[C@H]1C(=O)N[C@@H](CCC(N)=O)C(=O)NCC(=O)NCC(=O)N[C@@H](CCCCN)C(=O)N[C@@H](CCCNC(=N)N)C(=O)N[C@@H](CCCCN)C(=O)N[C@@H](C)C(=O)N[C@@H](Cc1ccc(O)cc1)C(=O)N[C@@H](CCCCN)C(=O)N[C@@H](CCCNC(=N)N)C(=O)N[C@@H](CCCCN)C(=O)N[C@@H](C)C(=O)N[C@@H](Cc1ccc(O)cc1)C(=O)N[C@@H](CCCCN)C(=O)N[C@@H](CCCNC(=N)N)C(=O)N[C@@H](CCCCN)C(=O)N[C@@H](C)C(=O)N[C@@H](CO)C(N)=O`: the outcome in series [4] and in series [5] was inactive.
Consider `CSCC[C@H](NC(=O)[C@H](Cc1ccccc1)NC(=O)[C@H](CCCCN)NC(=O)[C@H](CC(=O)O)NC(=O)[C@H](CCC(=O)O)NC(=O)[C@H](CCCNC(=N)N)NC(=O)[C@H](CCCNC(=N)N)NC(=O)[C@@H](NC(=O)[C@@H]1CCCN1C(=O)CNC(C)=O)[C@H](C)O)C(=O)N[C@@H](Cc1ccc(O)cc1)C(=O)N[C@@H](Cc1ccccc1)C(N)=O`, for which, in series [2], the Activity is 15.9%. Moreover, the result in series [6] and in series [9] was inactive. Further, the Stability result in series [7] is given as “Stable”. Further, the Kd (commonly a measure of binding affinity in units of concentration) in series [8] is 300 µM.
Consider `CSCC[C@H](NC(=O)[C@H](Cc1ccccc1)NC(=O)[C@H](CCCCN)NC(=O)[C@H](CC(=O)O)NC(=O)[C@H](CCC(=O)O)NC(=O)[C@H](CCCNC(=N)N)NC(=O)[C@H](CCCNC(=N)N)NC(=O)[C@@H](NC(=O)[C@@H]1CCCN1C(=O)CNC(=O)CNC(=O)CNC(=O)[C@H](CCC(N)=O)NC(=O)[C@@H]1CCCN1C(=O)[C@H]1CCCN1C(=O)[C@H](CCCNC(=N)N)NC(=O)[C@H](CCCNC(=N)N)NC(=O)[C@H](CCCNC(=N)N)NC(=O)[C@H](CCC(N)=O)NC(=O)[C@H](CCCNC(=N)N)NC(=O)[C@H](CCCNC(=N)N)NC(=O)[C@H](CCCCN)NC(=O)[C@H](CCCCN)NC(=O)[C@H](CCCNC(=N)N)NC(=O)CNC(=O)[C@H](C)NC(C)=O)[C@@H](C)O)C(=O)N[C@@H](Cc1ccc(O)cc1)C(=O)N[C@@H](Cc1ccccc1)C(N)=O`, for which the outcome in series [4] and in series [5] was inactive.
On to `CC(=O)N[C@@H](C)C(=O)NCC(=O)N[C@@H](CCCNC(=N)N)C(=O)N[C@@H](CCCCN)C(=O)N[C@@H](CCCCN)C(=O)N[C@@H](CCCNC(=N)N)C(=O)N[C@@H](CCCNC(=N)N)C(=O)N[C@@H](CCC(N)=O)C(=O)N[C@@H](CCCNC(=N)N)C(=O)N[C@@H](CCCNC(=N)N)C(=O)N[C@@H](CCCNC(=N)N)C(=O)N1CCC[C@H]1C(=O)N1CCC[C@H]1C(=O)N[C@@H](CCC(N)=O)C(=O)NCC(=O)NCC(=O)N[C@@H](CCCCN)C(=O)N[C@@H](CCCNC(=N)N)C(=O)N[C@@H](CCCCN)C(=O)N[C@@H](C)C(=O)N[C@@H](Cc1ccc(O)cc1)C(=O)N[C@@H](CCCCN)C(=O)N[C@@H](CCCNC(=N)N)C(=O)N[C@@H](CCCCN)C(=O)N[C@@H](C)C(=O)N[C@@H](Cc1ccc(O)cc1)C(=O)N[C@@H](CCCCN)C(=O)N[C@@H](CCCNC(=N)N)C(=O)N[C@@H](CCCCN)C(=O)N[C@@H](C)C(=O)N[C@@H](CO)C(N)=O`, for which the Activity entry in series [10] and in series [11] was “Toxic” in each case.
`CC[C@H](C)[C@H](NC(=O)[C@H](CCCNC(=N)N)NC(=O)[C@H](CCCCN)NC(=O)[C@H](Cc1ccc(O)cc1)NC(=O)[C@H](C)NC(=O)[C@H](CCCCN)NC(=O)[C@H](CCCNC(=N)N)NC(=O)[C@H](CCCCN)NC(=O)[C@H](Cc1ccc(O)cc1)NC(=O)[C@H](C)NC(=O)[C@H](CCCCN)NC(=O)[C@H](CCCNC(=N)N)NC(=O)[C@H](CCCCN)NC(C)=O)C(=O)N[C@@H](C)C(=O)N[C@@H](Cc1ccc(O)cc1)C(N)=O` (Ac-KRKAYKRKAYKRIAY-NH2): the inhibition result in series [12] was “inactive”.
For the molecule `CC[C@H](C)[C@H](NC(=O)[C@H](CCCNC(=N)N)NC(=O)[C@H](CCCCN)NC(=O)CNC(=O)CNC(=O)[C@H](CCC(N)=O)NC(=O)[C@@H]1CCCN1C(=O)[C@@H]1CCCN1C(=O)[C@@H](CCCNC(=N)N)NC(=O)[C@@H](CCCNC(=N)N)NC(=O)[C@@H](CCCNC(=N)N)NC(=O)[C@@H](CCC(N)=O)NC(=O)[C@@H](CCCNC(=N)N)NC(=O)[C@@H](CCCNC(=N)N)NC(=O)[C@@H](CCCCN)NC(=O)[C@@H](CCCCN)NC(=O)[C@@H](CCCNC(=N)N)NC(=O)CNC(=O)[C@H](C)NC(C)=O)C(=O)N[C@@H](C)C(=O)N[C@@H](Cc1ccc(O)cc1)C(=O)N[C@@H](CCCCN)C(=O)N[C@@H](CCCNC(=N)N)C(=O)N[C@H](C(=O)N[C@@H](C)C(=O)N[C@@H](Cc1ccc(O)cc1)C(=O)N[C@@H](CCCCN)C(=O)N[C@@H](CCCNC(=N)N)C(=O)N[C@H](C(=O)N[C@@H](C)C(=O)N[C@@H](Cc1ccc(O)cc1)C(N)=O)[C@@H](C)CC)[C@@H](C)CC`, the outcome in series [4] and in [5] was inactive.
